US20090298938A1, “USE OF SEMI SYNTHETIC ANALOGUES OF BOSWELLIC ACIDS FOR ANTICANCER ACTIVITY” (COUNCIL OF SCIENTIFIC & INDUSTRIAL RESEARCH, priority 2008, published 2009)

Key:
Assay type in all cases: cell-based, human
Details in all cases: Conc. 5 × 10^5 (r27-r29: 5 × 10^−5); 48 hr; Table 1
[1] = test system: Colo-205 colon cancer cells; test: In vitro cytotoxicity, SRB assay, Colo-205
Method: (§1) The semi-synthetic analogues of formula 1 have been subjected to in vitro cytotoxicity screening in a panel of human cancer cell lines using following methodology. The human cancer cell lines were obtained either from National Center for Cell Science, Pune or National Cancer Institute, Fredrick, Md., USA. Cells were grown in tissue culture flasks in complete growth medium (RPMI-1640 medium with 2 mM glutamine, 100 µg/ml streptomycin, pH 7.4, sterilized by filtration and supplemented with 10% sterilized fetal calf serum and 100 units/ml penicillin before use) at 37° C. in an atmosphere of 5% CO2 and 90% relative humidity in a carbon dioxide incubator. The cells at sub-confluent stage were harvested from flask by treatment with trypsin (0.05% trypsin in PBS containing 0.02% EDTA) and suspended in complete growth medium. Cells with cell viability of more than 97% by trypan blue exclusion technique were used for determination of cytotoxicity.
(§2) Test material were dissolved in DMSO (dimethyl sulphoxide) to obtain a stock solution of 2×10^−2M. The stock solution was serially diluted with complete growth medium containing 50 μg/ml of gentamycin to obtain working test solutions of required concentrations.
(§3) The suspension of human cancer cell lines of required cell density in complete growth medium was prepared and cell suspension (100 μl/well) of each cell line was added to wells of 96-well tissue culture plate. Suitable blanks and controls were also included. The plates were incubated for 24 hrs in a carbon dioxide incubator.
(§4) The working test solutions of different concentrations (100 μl/well) were added after 24 hr incubation. The plates were further incubated for 48-hrs after addition of the test materials. After incubation, the cell growth was stopped by gently layering of 50 μl of TCA (50% trichloroacetic acid) on top of the medium in all the wells. The plates were incubated at 4° C. for one hour to fix the cells attached to bottom of the wells. Liquids of all the wells were gently pipetted out and discarded. The plates were washed five times with distilled water to remove TCA, growth medium, low molecular weight metabolites, serum proteins etc. The plates were air dried.
(§5) Cell growth was measured by staining with sulforhodamine B dye (SRB). The SRB solution (100 μl, 0.4% in 1% acetic acid) was added to each well and the plates were incubated at room temperature for 30 minutes. The unbound SRB was quickly removed by washing the wells five times with 1% acetic acid solution and plates were air dried. Tris buffer (100 μl, 0.01 M, pH 10.4) was added to all the wells and plates were gently stirred for 5 minutes on a mechanical stirrer. The optical density was recorded on ELISA reader at 540 nm.
(§6) Cell growth in the presence of test material was calculated in terms of the percentage of growth inhibition. The in vitro cytotoxicity of four natural boswellic acid i.e. boswellic acid, acetyl boswellic acid, 11-keto-boswellic acids, acetyl-11-ketio-boswellic acid on various cancer cell lines has been examined and typical results are given in the succeeding table. Based on their cytotoxicity profile the analogues of formula 1 were studied for inhibition of cell proliferation by using MTT assay method. […] The induction of apoptosis in HL-60 cells was also validated by generation of DNA fragmentation.
(§7) Assay of cytotoxicity potential of test materials is a primary standard procedure for seeking lead molecules for development of anti-cancer leads. Human cancer cells after trypsinization into single cell suspension were grown in 96-well culture plate for 24 hr. Cells were treated with indicated doses of test analogues and incubated in CO2 incubator for 48 hr. Thereafter, cells were stained with sulforhodamine B dye, and the bound dye was eluted to measure the optical density indicating cell growth in Elisa Reader at 540 nm [Monks et al., 1991]. […]

HT-29 colon cancer cells = test: In vitro cytotoxicity, SRB assay, HT-29
Method: as §1, §2, §3, §4, §5, §6, §7

PC-3 cells = test: In vitro cytotoxicity, SRB assay, PC-3
Method: as §1, §2, §3, §4, §5, §6, §7

Hep-2 cells = test: In vitro cytotoxicity, SRB assay, Hep-2
Method: as §1, §2, §3, §4, §5, §6, §7

[2] = test system: SW-620 colon cancer cells; test: In vitro cytotoxicity, SRB assay, SW-620
Method: as §1, §2, §3, §4, §5, §6, §7

SMILES	Growth inhibition % Colo-205 Colon [1]	Growth inhibition % HT-29 Colon (HT-29 colon cancer cells)	Growth inhibition % PC-3 (PC-3 cells)	Growth inhibition % Hep-2 (Hep-2 cells)	Growth inhibition % SW-620 Colon [2]
CCCC(=O)OC1CCC2(C)C(CCC3(C)C2C(=O)C=C2C4C(C)C(C)CCC4(C)CCC23C)C1(C)C(=O)O (stereo not shown)	94%				
CCCCCC(=O)OC1CCC2(C)C(CCC3(C)C2C(=O)C=C2C4C(C)C(C)CCC4(C)CCC23C)C1(C)C(=O)O (stereo not shown)	95%	96%	73%	100%	100%
CC1CCC2(C)CCC3(C)C(=CCC4C5(C)CCC(O)C(C)(C(=O)O)C5CCC43C)C2C1C (stereo not shown) [1, R3 = H, R1 = H, R4 = R5 = H]	85%	73%	69%	66%	65%
CCCC(=O)OC1CCC2(C)C(CCC3(C)C2CC=C2C4C(C)C(C)CCC4(C)CCC23C)C1(C)C(=O)O (stereo not shown) [1, R3O = COCH2CH2CH3, R1 = H, R4 = R5 = H]	91%	98%	75%	99%	101%
CCC(=O)OC1CCC2(C)C(CCC3(C)C2C(=O)C=C2C4C(C)C(C)CCC4(C)CCC23C)C1(C)C(=O)O (stereo not shown) [1, R3O = COCH2CH3, R1 = H, R4 + R5 = O]	92%	92%	61%	72%	90%
CC(=O)OC1CCC2(C)C(CCC3(C)C2C(=O)C=C2C4C(C)C(C)CCC4(C)CCC23C)C1(C)C(=O)O (stereo not shown) [1, R3O = COCH3, R1 = H, R4 + R5 = O]	56%	45%	60%	50%	48%
CC1CCC2(C)CCC3(C)C(=CC(=O)C4C5(C)CCC(OC=O)C(C)(C(=O)O)C5CCC43C)C2C1C (stereo not shown) [1, R3O = COH, R1 = H, R4 + R5 = O]	76%	62%	99%	56%	70%
CC1CCC2(C)CCC3(C)C(=CCC4C5(C)CCC(OC=O)C(C)(C(=O)O)C5CCC43C)C2C1C (stereo not shown) [1, R3O = COH, R1 = H, R4 = R5 = H]	93%	79%	99%	75%	92%
CCC(=O)OC1CCC2(C)C(CCC3(C)C2CC=C2C4C(C)C(C)CCC4(C)CCC23C)C1(C)C(=O)O (stereo not shown) [1, R3O = —COCH2CH3, R1 = H, R4 = R5 = H]	86%	94%	98%	86%	94%
CC(=O)OC1CCC2(C)C(CCC3(C)C2CC=C2C4C(C)C(C)CCC4(C)CCC23C)C1(C)C(=O)O (stereo not shown) [1, R3O = —COCH3, R1 = H, R4 = R5 = H]	34%	34%	54%	41%	38%
